Laboratory results published in patent US9937161B2, “Combinatorial compositions and methods for treatment of melanoma” (THE GENERAL HOSPITAL CORPORATION, priority 2013, dated 2018).

Tests used:
[1] = system: A375P xenografts; test: Xenograft tumor study; type: in vivo, mice; conditions: 2,4-DNP 20 mg/kg/day by oral gavage
Description: FIG. 7G are line graphs showing the effect of 2,4-DNP (20 mg/kg/day) or vemurafenib (75 mg/kg/day) on murine melanoma xenografts of A375P cell line (n=7-8 per group). **, p<0.01 compared to vehicle group; ***, p<0.001 compared to vehicle group.
All mouse experiments (tumor nucleation studies and longitudinal drug treatment) were done in accordance with Institutional Animal Care and Use Committee (IACUC) approved animal protocols at Dana-Farber Cancer Institute. Engineered melanoma cells with BRAF(V600E)+vector or +MITF were inoculated subcutaneously at three flank positions (100,000 cells in 100 μL PBS per site) in NCR-FoxNu (male, 6 weeks) animals. Tumor establishment was monitored and experiment was terminated after 10 weeks. For longitudinal tumor treatment studies, melanoma cell lines (A375P and UACC257, both carrying pFUW-mCherry-puro-LUC) were injected subcutaneously into NCR-FoxNu mice (5,000,000 cells in 100 μL PBS with growth factor reduced matrigel). Initial tumor establishment and growth visualized by in vivo imaging by comparing signal obtained seven (7) days apart. […] Treatment with vemurafenib (75 mg/kg/day) or 2,4-DNP (20 mg/kg/day) was administered by oral gavage in 0.5% methyl cellulose and tumor size measured by calipers twice weekly. Mean response measured based on cohorts of 6-7 mice for each arm (and each cell line).

[2] = system: melanoma cells (M14); test: Cell number, mitochondrial inhibitors combined with PLX4720; conditions: in vitro; cell number after 72 hrs
Description: (§1) Melanoma cell were treated for 24 h with PLX4720 then mitochondrial uncoupler for 48 h, prior to estimation of cell number.
as §1
(§2) Cell number was calculated using the CYQUANT® assay (INVITROGEN™) or crystal violet staining. Lactate measurements were done using the Lactate Assay (BioVision or SIGMA®) per manufacturer's protocols. Indicated cell lines were plated in complete media overnight. Media was changed to serum free-media to avoid interference with the assay for 16 h with either PLX4720 (3 μM) or PLX4032 (1 μM) or vehicle control prior to harvesting cells and measurement of lactate. Results were normalized to cell number. All assays were performed in logarithmically growing cells.

[3] = system: BRAF(V600E)+vector and BRAF(V600E)+MITF melanoma cells; test: Cell number after 2,4-DNP in isogenic cells; type: cell-based, human; conditions: 72 h
Description: FIG. 7A are histograms showing the number of BRAF(V600E)+vector and BRAF(V600E)+MITF melanoma cells following treatment with 2,4-DNP with indicated dose for 72 h.
(§3) Indicated cell lines were plated in complete media overnight. […] Results were normalized to cell number. All assays were performed in logarithmically growing cells.

[4] = system: melanoma cells or primary human melanocytes; test: Cell number after 2,4-DNP, melanoma cells versus melanocytes; type: cell-based; conditions: 50 μg/mL, 72 h
Description: FIG. 13 are histograms showing the number of melanoma cells or primary human melanocytes following treatment with 2,4-DNP (50 μg/mL) for 72 h. **, p<0.01 compared to primary melanocytes treated with 2,4-DNP.
as §3

[5] = system: UACC257 cells; test: ATP assay after 2,4-DNP; type: cell-based; conditions: 50 μg/mL, 24 h
Description: (§4) FIG. 7D are histograms showing the effects of 2,4-DNP (50 μg/mL, 24 h) on ATP in the indicated cell lines in vitro.
(§5) Glucose uptake (relative to total cell numbers) was measured over 24 h as trace [^3H]-deoxyglucose uptake in cells growing in glucose-containing media followed by plate harvest and subsequent analysis on a PerkinElmer® Wallac 1450 Microbeta scintillation counter. Oxygen consumption was measured using XF Flux Analyzer (Seahorse Biosciences) using standard protocols. ATP measurements were conducted using ENLITEN® ATP assay (PROMEGA®) according to standard trichloroacetic acid (TCA) extraction protocols.

[6] = system: A375P cells; test: ATP assay after 2,4-DNP; type: cell-based; conditions: 50 μg/mL, 24 h
Description: as §4, §5

[7] = system: UACC257 xenografts; test: Xenograft tumor study; type: in vivo, mice; conditions: 2,4-DNP 20 mg/kg/day or vemurafenib 75 mg/kg/day by oral gavage
[8] = system: UACC257 cells; test: Lactate assay after 2,4-DNP; type: cell-based; conditions: 50 μg/mL, 24 h
Description: (§6) FIG. 7E are histograms showing the effects of 2,4-DNP (50 μg/mL, 24 h) on the lactate levels in the indicated cell lines in vitro.
as §3

[9] = system: A375P cells; test: Lactate assay after 2,4-DNP; type: cell-based; conditions: 50 μg/mL, 24 h
Description: as §6, §3

[10] = system: BRAF wild-type melanoma; test: PGC1α mRNA by quantitative PCR; type: cell-based; conditions: 1 μM, 24 h
[11] = system: BRAF mutant melanoma M14 cells; test: PGC1β mRNA time course; type: cell-based; conditions: over 24 hours
[12] = system: BRAF wild-type (MeWo) melanoma cell line; test: MITOTRACKER Green flow cytometry (mitochondrial density); type: cell-based; conditions: 1 μM, 72 h
Description: (§7) MITOTRACKER® Red, Green and MITOSOX™ were obtained from INVITROGEN™ using manufacturer's recommended protocols. Mean fluorescence was determined by FlowJo software and normalized to vehicle-treated cells.

[13] = system: BRAF mutant (UACC-62 and UACC-257) melanoma cell lines; test: as above; type: cell-based; conditions: 1 μM, 72 h; two BRAF mutant melanomas
Description: as §7

[14] = system: BRAF mutant melanoma cell line UACC62; test: Electron microscopy, mitochondrial number; type: cell-based; conditions: 3 μM, 72 hrs
Description: Electron microscopy of UACC-62 melanoma cells treated with vehicle or PLX4720 (3 μM, 72 hrs) was performed at Massachusetts General Hospital's PMB Microscopy Core. Cells were fixed for 1 hr at room temp in 2.0% glutaraldehyde in 0.1 M sodium cacodylate buffer, pH 7.4 (Electron Microscopy Sciences, Hatfield, Pa.). Cells were rinsed in buffer, scraped and pelleted. The pellets were treated with 1.0% osmium tetroxide (EMS) in cacodylate buffer for 1 hr at room temp. They were rinsed and then resuspended in 2.0% agarose for ease of handling. Small pieces were dehydrated through a graded series of ethanol, then infiltrated with eponate resin (Ted Pella, Redding, Calif.) overnight at room temp. They were then embedded in resin overnight at 60° C. Thin sections were cut on a Leica UC6 ultramicrotome, collected onto formvar-carbon coated slot grids and post-stained with uranyl acetate and lead citrate. […] Images were collected with an AMT digital imaging system (Advanced Microscopy Techniques, Danvers, Mass.). Mitochondrial density was calculated by morphometrics by standard protocols.

[15] = system: PGC1α promoter; test: PGC1α promoter luciferase assay; type: cell-based; conditions: UACC-62 cells; 48 h; wild-type promoter
Description: The murine PGC1α promoter was obtained from ADDGENE. Mutant promoters were verified by sequencing. UACC-62 cells were transfected with each promoter construct, pRL-CMV Renilla control and a M-MITF overexpression vector. PLX4720 treatment was for 48 h. Results reported are averages of at least three independent experiments, normalized for transfection efficiency using Renilla luciferase.

[16] = system: BRAF mutant (UACC-62) melanoma cell line; test: MITOSOX fluorescence assay; type: cell-based; conditions: 1 μM, 72 h
Description: as §7

[17] = system: BRAF mutant colon cancer cell lines; test: PGC1α mRNA by quantitative PCR; type: cell-based; conditions: two BRAF mutant colon cancer cell lines; 1 μM, 24 h
[18] = system: melanomas with BRAF mutations; test: PGC1α mRNA by quantitative PCR; type: cell-based; conditions: 1 μM, 24 h
[19] = system: UACC-257 cells; test: Pigmentation of cell pellets; type: cell-based; conditions: 72 h
From the text: Equal number of cells was pelleted by centrifugation.

[20] = system: melanoma cell line that does not contain the BRAF mutation; test: Lactate assay; type: cell-based; conditions: melanoma cell line without BRAF mutation; 16 hours
Description: (§8) FIG. 1F are histograms showing the lactate levels in media conditioned from the indicated cell lines treated with PLX4720 or vehicle control for 16 hours.
as §2

[21] = system: BRAF mutant melanomas; test: Lactate assay; type: cell-based; conditions: all BRAF mutant melanomas evaluated; 16 hours
Description: as §8, §2

[22] = system: melanoma cell line that does not contain the BRAF mutation; test: phospho-ERK Western blot; type: cell-based; conditions: melanoma cell line without BRAF mutation
Description: FIG. 1G are representative Western blots showing activated ERK activity in cells of FIG. 1f using phospho-ERK antibodies.
(§9) Whole cell lysates were prepared in lysis buffer supplemented with protease and phosphatase inhibitors (Roche). Equal amounts of protein were resolved by electrophoresis on gradient gels (Bio-Rad).
(§10) Melanoma biopsies prior and during treatment were sectioned, embedded in paraffin and stained with the phospho-ERK1/2 antibody (Cell Signaling Technology). PLX4720 was used at 1 μM concentration in all assays, whereas control samples were treated with an equal volume of DMSO.

[23] = system: BRAF mutant colon cancer cell lines; test: phospho-ERK Western blot; type: cell-based; conditions: two BRAF mutant colon cancer cell lines; 1 μM, 24 h
Description: FIG. 2B are representative Western blots showing the ERK activity in melanoma or colon cancer cells treated with PLX4720 (1 μM) for 24 h.
as §9, §10

[24] = system: BRAF mutant (UACC-62) melanoma cell line; test: MITOTRACKER Red flow cytometry; type: cell-based; conditions: 1 μM, 72 h
Description: as §7

[25] = system: BRAF mutant melanomas; test: Gene set enrichment analysis of melanoma cell lines treated with vemurafenib; type: cell-based; conditions: PLX4032 treated melanoma cell lines (n = 6)
[26] = system: BRAF(V600E) parental cells; test: ATP assay in isogenic cells; type: cell-based, human; conditions: 1 μM, 24 h
Description: FIG. 6G are histograms showing the ATP levels, normalized to cell number in BRAF(V600E)+vector and BRAF(V600E)+MITF treated with PLX4032 (1 μM) for 24 h. ***, p<0.001 compared to control cells.
as §5

O=[N+]([O-])c1ccc(O)c([N+](=O)[O-])c1 [2,4-DNP, 2,4-dinitrophenol]
tumor growth [1]: insensitive
Combination Index with PLX4720 (additively enhanced the efficacy of PLX4720) [2]: 0.9
sensitivity of BRAF(V600E)+MITF cells versus BRAF(V600E)+vector cells (cell number) [3]: significantly more sensitive
sensitivity of melanoma cells compared to primary melanocytes (cell number) [4]: more sensitive to DNP than primary melanocytes, except A375P
ATP [5]: decrease
decrease in ATP [6]: not
tumor growth [7]: profoundly inhibited tumor growth
lactate [8]: increases
increases in lactate [9]: not

CCCS(=O)(=O)Nc1ccc(F)c(C(=O)c2c[nH]c3ncc(Cl)cc23)c1F [PLX4720, N-[3-[(5-Chloro-1H-pyrrolo[2,3-b]pyridin-3-yl)carbonyl]-2,4-difluorophenyl]-1-propanesulfonamide]
expression of PGC1α [10]: No change
PGC1β mRNA [11]: no change
mitochondrial density (MITOTRACKER Green) [12]: did not affect
mitochondrial density (MITOTRACKER Green) [13]: increased
number of mitochondria per cell [14]: significant increase
activity of PGC1α promoter upstream of luciferase [15]: induction of the wild-type promoter
production of mitochondrial oxidative stress (MITOSOX) [16]: increased
PGC1α expression [17]: no effect
PGC1α mRNA ([18]; M14 cells, control siRNA): strongly induced
induction of PGC1α mRNA ([18]; UACC62 cells, control siRNA): 3 fold
increase in PGC1α mRNA ([18]; all melanomas with BRAF mutations): 3-14 fold
pigmentation [19]: increased pigmentation
lactate levels [20]: did not change
lactate levels [21]: reduced
ERK signaling [22]: inability of PLX4720 to suppress ERK signaling
ERK phosphorylation [23]: suppression of ERK phosphorylation similar to that seen in melanomas
MITOTRACKER Red fluorescence (mitochondrial activity and mass) [24]: induced

CCCS(=O)(=O)Nc1ccc(F)c(C(=O)c2c[nH]c3ncc(-c4ccc(Cl)cc4)cc23)c1F [vemurafenib]
ES, CANCERDRUGS_PROBCELL_UP ([25]; gene set size 15): −0.6598
NES, CANCERDRUGS_PROBCELL_UP ([25]; gene set size 15): −1.791
ES, CAMPTOTHECIN_PROBCELL_UP ([25]; gene set size 17): −0.6506
NES, CAMPTOTHECIN_PROBCELL_UP ([25]; gene set size 17): −1.802
ES, ATP_SYNTHESIS ([25]; gene set size 19): −0.6141
ES, FLAGELLAR_ASSEMBLY ([25]; gene set size 19): −0.6141
ES, TYPE_III_SECRETION_SYSTEM ([25]; gene set size 19): −0.6141
NES, ATP_SYNTHESIS ([25]; gene set size 19): −1.75
NES, FLAGELLAR_ASSEMBLY ([25]; gene set size 19): −1.8
NES, TYPE_III_SECRETION_SYSTEM ([25]; gene set size 19): −1.739
ES, CITRATE_CYCLE_TCA_CYCLE ([25]; gene set size 20): −0.8827
ES, PHOTOSYNTHESIS ([25]; gene set size 20): −0.6181
NES, CITRATE_CYCLE_TCA_CYCLE ([25]; gene set size 20): −2.017
NES, PHOTOSYNTHESIS ([25]; gene set size 20): −1.797
ES, BRENTANI_TRANSPORT_OF_VESICLES ([25]; gene set size 23): −0.604
NES, BRENTANI_TRANSPORT_OF_VESICLES ([25]; gene set size 23): −1.772
ES, HSA00020_CITRATE_CYCLE ([25]; gene set size 25): −0.6303
NES, HSA00020_CITRATE_CYCLE ([25]; gene set size 25): −1.94
ES, HSA00640_PROPANOATE_METABOLISM ([25]; gene set size 29): −0.5472
NES, HSA00640_PROPANOATE_METABOLISM ([25]; gene set size 29): −1.733
ES, VALINE_LEUCINE_AND_ISOLEUCINE_DEGRADATION ([25]; gene set size 35): −0.5231
NES, VALINE_LEUCINE_AND_ISOLEUCINE_DEGRADATION ([25]; gene set size 35): −1.732
ES, HSA000280_VALINE_LEUCINE_AND_ISOLEUCINE_DEGRADATION ([25]; gene set size 42): −0.5627
NES, HSA000280_VALINE_LEUCINE_AND_ISOLEUCINE_DEGRADATION ([25]; gene set size 42): −1.945
ES, OXIDATIVE_PHOSPHORYLATION ([25]; gene set size 55): −0.5114
NES, OXIDATIVE_PHOSPHORYLATION ([25]; gene set size 55): −1.891
ES, HSA00190_OXIDATIVE_PHOSPHORYLATION ([25]; gene set size 100): −0.4531
NES, HSA00190_OXIDATIVE_PHOSPHORYLATION ([25]; gene set size 100): −1.845
ES, PENG_GLUTAMINE_UP ([25]; gene set size 227): −0.3896
NES, PENG_GLUTAMINE_UP ([25]; gene set size 227): −1.777
drop in ATP [26]: 42%
